From ChEMBL document CHEMBL4304823, “Photo-induced synthesis of Axinastatin 3 analogs, the secondary structures and their in vitro antitumor activities” (Bioorg Med Chem Lett, 2019)
Values after ≈ are worked out from the molar mass of the structure shown. Active and inactive are the calls of the source. The rule behind the calls is not given here.

Experiments:
HepG2 [1] = assay: Antitumour activity against human HepG2 cells assessed as reduction in cell viability incubated for 48 hrs by MTT assay; format: functional, cell-based; conditions: HepG2, 48 h
HeLa = assay: Antitumour activity against human HeLa cells assessed as reduction in cell viability by MTT assay; format: functional, cell-based
L929 = assay: Cytotoxicity against mouse L929 cells assessed as reduction in cell viability measured after 48 hrs; format: cell-based; conditions: for IC50: Mus musculus, L929, 48 h; for Activity: mouse, l929, 48 h
HepG2 [2] = assay: Induction of cell morphological changes in human HepG2 cells assessed as change in normal spindle cell shape to rounder cells with weak adhesion ability at 40 uM measured after 0 to 48 hrs by fluorescence inversion microscopy analysis; format: functional, cell-based
HepG2 [3] = assay: Induction of cell death in human HepG2 cells at 40 uM measured after 48 hrs by fluorescence inversion microscopy analysis; format: functional, cell-based
HepG2 [4] = assay: Induction of cell morphological changes in human HepG2 cells assessed as decrease in cell number at 40 uM measured after 0 to 48 hrs by fluorescence inversion microscopy analysis; format: functional, cell-based

IC50 (HepG2 [1]) | IC50 (HeLa) | Structure (SMILES) | IC50 (L929) | Activity (HepG2 [2]) | Activity (HepG2 [3]) | Activity (HepG2 [4]) | Activity (L929)
102 µg/mL (≈ 119 µM) | > 400 µg/mL | CC(=O)O[C@H]1C(=O)[C@@]2(C)[C@H]([C@H](OC(=O)c3ccccc3)[C@]3(O)C[C@H](OC(=O)[C@H](O)[C@@H](NC(=O)c4ccccc4)c4ccccc4)C(C)=C1C3(C)C)[C@]1(OC(C)=O)CO[C@@H]1C[C@@H]2O [PACLITAXEL] | 33 µg/mL (≈ 38.6 µM) |  |  |  | 
 |  | CC[C@H](C)[C@@H]1NC(=O)CN2C(=O)c3ccccc3[C@@]2(O)CN(Cc2ccccc2)C(=O)[C@H]2CCCN2C(=O)[C@H](C(C)C)NC(=O)[C@H]2CCCN2C(=O)[C@H](CC(C)C)NC1=O |  | Active | Active | Active | 
64.5 µg/mL (≈ 65.6 µM) | 280 µg/mL (≈ 285 µM) | CCNC(=O)CC[C@@H]1NC(=O)CN2C(=O)c3ccccc3[C@@]2(O)CN(Cc2ccccc2)C(=O)[C@H]2CCCN2C(=O)[C@H](C(C)C)NC(=O)[C@H]2CCCN2C(=O)[C@H](CC(C)C)NC(=O)[C@H]([C@@H](C)CC)NC1=O | 61.1 µg/mL (≈ 62 µM) |  |  |  | Dose-dependent effect
38.4 µg/mL (≈ 46.4 µM) | 41.2 µg/mL (≈ 49.7 µM) | CC[C@H](C)[C@@H]1NC(=O)CN2C(=O)c3ccccc3[C@@]2(O)CN(Cc2ccccc2)C(=O)[C@@H]2CCCN2C(=O)[C@H](C(C)C)NC(=O)[C@@H]2CCCN2C(=O)[C@H](CC(C)C)NC1=O | 50.5 µg/mL (≈ 61 µM) |  |  |  | Dose-dependent effect
72.6 µg/mL (≈ 87.6 µM) | 89 µg/mL (≈ 107 µM) | CC[C@H](C)[C@@H]1NC(=O)CN2C(=O)c3ccccc3[C@]2(O)CN(Cc2ccccc2)C(=O)[C@@H]2CCCN2C(=O)[C@H](C(C)C)NC(=O)[C@@H]2CCCN2C(=O)[C@H](CC(C)C)NC1=O | 86.2 µg/mL (≈ 104 µM) |  |  |  | Dose-dependent effect
